Laboratory results published in PubChem BioAssay (NCI).
“And” between values parts separate entries of the source, which are not always exact repeats. Equal values may be shown once.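 All cell lines were grown in 96-well plates and treated with compound for 48 hours. Here, GI50 denotes the concentration required for 50% inhibition of growth. TGI: concentration producing complete growth inhibition.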

Experiments:
Experiment in all cases: NCI anticancer screen, dose series, 48 h
A549 NSCLC = tested on: A549 NSCLC
BT-549 breast = tested on: BT-549 breast
CCRF-CEM leukemia = tested on: CCRF-CEM leukemia
HL-60(TB) leukemia = tested on: HL-60(TB) leukemia
IGROV1 ovarian = tested on: IGROV1 ovarian
NCI/ADR-RES ovarian = tested on: NCI/ADR-RES ovarian
OVCAR-3 ovarian = tested on: OVCAR-3 ovarian
OVCAR-4 ovarian = tested on: OVCAR-4 ovarian
RPMI-8226 leukemia = tested on: RPMI-8226 leukemia
UO-31 renal = tested on: UO-31 renal

`O=c1[nH]c2c(ccc3cnccc32)c2c1CCC2` was tested, and the GI50 (A549 NSCLC) was 0.5 µM, the TGI (A549 NSCLC) was > 53.5 µM and the GI50 (BT-549 breast) was 0.172 µM. For the same compound, the TGI (BT-549 breast) was 0.532 µM, the GI50 (CCRF-CEM leukemia) was 0.248 µM and the TGI (CCRF-CEM leukemia) was 0.708 µM. It also gave a GI50 (HL-60(TB) leukemia) of 0.272 µM, a GI50 (IGROV1 ovarian) of 0.258 µM and a TGI (IGROV1 ovarian) of 0.923 µM. The GI50 (NCI/ADR-RES ovarian) was 0.426 µM, the TGI (NCI/ADR-RES ovarian) was > 100 µM and the GI50 (OVCAR-3 ovarian) was 0.277 µM. For the same compound, the TGI (OVCAR-3 ovarian) was 11.7 µM, the GI50 (OVCAR-4 ovarian) was 0.726 µM and the TGI (OVCAR-4 ovarian) was > 100 µM. For the same compound, the GI50 (RPMI-8226 leukemia) was 0.244 µM, the TGI (RPMI-8226 leukemia) was 1.18 µM and the GI50 (UO-31 renal) was 0.243 µM. It also gave a TGI (UO-31 renal) of 0.67 µM.

`O=C1Nc2ccc(I)cc2/C1=C/c1cc(Br)c(O)c(Br)c1` was tested, and the GI50 (A549 NSCLC) was > 24.2 µM and 22.7 µM, the TGI (A549 NSCLC) was > 25 µM and 97 µM and the GI50 (BT-549 breast) was > 17.9 µM and 8.07 µM. For the same compound, the TGI (BT-549 breast) was > 25 µM and 32.7 µM, the GI50 (CCRF-CEM leukemia) was > 18.5 µM and 6.24 µM and the TGI (CCRF-CEM leukemia) was > 25 µM and 51.3 µM. The GI50 (HL-60(TB) leukemia) was > 47.8 µM, the TGI (HL-60(TB) leukemia) was > 100 µM and the GI50 (IGROV1 ovarian) was > 25 µM and 27.8 µM. For the same compound, the TGI (IGROV1 ovarian) was > 75.5 µM, the GI50 (NCI/ADR-RES ovarian) was > 21.8 µM and 28.2 µM and the TGI (NCI/ADR-RES ovarian) was > 100 µM. For the same compound, the GI50 (OVCAR-3 ovarian) was > 12.5 µM and 16.7 µM, the TGI (OVCAR-3 ovarian) was > 20.6 µM and 36.9 µM and the GI50 (OVCAR-4 ovarian) was 24.8 µM and 23.3 µM. For the same compound, the TGI (OVCAR-4 ovarian) was > 100 µM, the GI50 (RPMI-8226 leukemia) was 15.3 µM and 6.81 µM and the TGI (RPMI-8226 leukemia) was > 100 µM. For the same compound, the GI50 (UO-31 renal) was > 16.4 µM and 18.1 µM and the TGI (UO-31 renal) was > 25 µM and 58.9 µM.

For `COc1cc(F)c(F)c(F)c1C(=O)c1cnc(NC2CCN(S(C)(=O)=O)CC2)nc1N`, the GI50 (A549 NSCLC) was 1 µM, the TGI (A549 NSCLC) was > 25 µM and the GI50 (BT-549 breast) was 3.23 µM. The TGI (BT-549 breast) was 8.35 µM, the GI50 (CCRF-CEM leukemia) was 1.21 µM and the TGI (CCRF-CEM leukemia) was > 25 µM. The GI50 (HL-60(TB) leukemia) was 0.244 µM, the TGI (HL-60(TB) leukemia) was 6.31 µM and the GI50 (IGROV1 ovarian) was 1.12 µM. The TGI (IGROV1 ovarian) was 21 µM, the GI50 (NCI/ADR-RES ovarian) was 5.16 µM and the TGI (NCI/ADR-RES ovarian) was > 25 µM. The GI50 (OVCAR-3 ovarian) was 2.33 µM, the TGI (OVCAR-3 ovarian) was > 19 µM and the GI50 (OVCAR-4 ovarian) was 3.29 µM. The TGI (OVCAR-4 ovarian) was > 25 µM, the GI50 (RPMI-8226 leukemia) was 0.417 µM and the TGI (RPMI-8226 leukemia) was 9.66 µM. The GI50 (UO-31 renal) was 1.6 µM and the TGI (UO-31 renal) was 13.4 µM.

In the case of `CS(=O)c1cc(=O)c2ccccc2s1` (stereo not given), the TGI (A549 NSCLC) is reported as 38.3 µM, the TGI (BT-549 breast) is reported as 27.6 µM and the TGI (CCRF-CEM leukemia) is reported as 4.45 µM. It also gave a TGI (HL-60(TB) leukemia) of 4.63 µM, a TGI (IGROV1 ovarian) of 34.2 µM and a TGI (NCI/ADR-RES ovarian) of 34.1 µM. It also gave a TGI (OVCAR-3 ovarian) of 4.47 µM, a TGI (OVCAR-4 ovarian) of 5.95 µM and a TGI (RPMI-8226 leukemia) of 9.08 µM. The TGI (UO-31 renal) was 22.3 µM.

`COc1ncc(-c2ccc3nc(N)n(-c4ccccc4C(F)(F)F)c(=O)c3c2)cc1S(=O)(=O)Nc1ccc(F)cc1F` was tested, and the GI50 (A549 NSCLC) was 0.653 µM, the TGI (A549 NSCLC) was > 100 µM and the GI50 (BT-549 breast) was 1.57 µM. For the same compound, the TGI (BT-549 breast) was 6.7 µM, the GI50 (CCRF-CEM leukemia) was 1.28 µM and the TGI (CCRF-CEM leukemia) was 32.2 µM. It also gave a GI50 (HL-60(TB) leukemia) of 1.42 µM, a TGI (HL-60(TB) leukemia) of 5.24 µM and a GI50 (IGROV1 ovarian) of 1.15 µM. For the same compound, the TGI (IGROV1 ovarian) was > 100 µM, the GI50 (NCI/ADR-RES ovarian) was 1.94 µM and the TGI (NCI/ADR-RES ovarian) was 13.8 µM. The GI50 (OVCAR-3 ovarian) was 0.369 µM, the TGI (OVCAR-3 ovarian) was 3.75 µM and the GI50 (OVCAR-4 ovarian) was 3.64 µM. For the same compound, the TGI (OVCAR-4 ovarian) was > 100 µM, the GI50 (RPMI-8226 leukemia) was 0.3 µM and the TGI (RPMI-8226 leukemia) was 2.54 µM.

With `CC1(C)N=C(N)N=C(N)N1c1cccc(CC(=O)Nc2ccccc2)c1` the GI50 (A549 NSCLC) was 3.54 µM, the TGI (A549 NSCLC) was > 100 µM and the GI50 (BT-549 breast) was 45.1 µM. The TGI (BT-549 breast) was > 100 µM, the GI50 (CCRF-CEM leukemia) was 18.2 µM and the TGI (CCRF-CEM leukemia) was > 100 µM. The GI50 (HL-60(TB) leukemia) was 6 µM, the TGI (HL-60(TB) leukemia) was > 100 µM and the GI50 (IGROV1 ovarian) was 8.48 µM. The TGI (IGROV1 ovarian) was > 100 µM, the GI50 (NCI/ADR-RES ovarian) was > 100 µM and the TGI (NCI/ADR-RES ovarian) was > 100 µM. The GI50 (OVCAR-3 ovarian) was 32.1 µM, the TGI (OVCAR-3 ovarian) was > 100 µM and the GI50 (OVCAR-4 ovarian) was 81.8 µM. For the same compound, the TGI (OVCAR-4 ovarian) was > 100 µM, the GI50 (UO-31 renal) was > 100 µM and the TGI (UO-31 renal) was > 100 µM.
